{"source": "the supplement of paper PMC13207355", "details_in_all_cases": "exposure time: 72 h", "key": {"E34 [1]": {"test_system": "E34 (patient-derived glioblastoma stem cells of proneural subtype)", "test": "phenotypic distance (Euclidean, principal components) from DMSO controls (arbitrary units); higher = stronger morphological change"}, "E28 [2]": {"test_system": "E28 (patient-derived glioblastoma stem cells of classical subtype)", "test": "phenotypic distance (Euclidean, principal components) from DMSO controls (arbitrary units); higher = stronger morphological change"}, "E31 [3]": {"test_system": "E31 (patient-derived glioblastoma stem cells of proneural subtype)", "test": "phenotypic distance (Euclidean, principal components) from DMSO controls (arbitrary units); higher = stronger morphological change"}, "E21 [4]": {"test_system": "E21 (patient-derived glioblastoma stem cells of mesenchymal subtype)", "test": "phenotypic distance (Euclidean, principal components) from DMSO controls (arbitrary units); higher = stronger morphological change"}, "E57 [5]": {"test_system": "E57 (patient-derived glioblastoma stem cells of mesenchymal subtype)", "test": "phenotypic distance (Euclidean, principal components) from DMSO controls (arbitrary units); higher = stronger morphological change"}, "E13 [6]": {"test_system": "E13 (patient-derived glioblastoma stem cells of classical subtype)", "test": "phenotypic distance (Euclidean, principal components) from DMSO controls (arbitrary units); higher = stronger morphological change"}, "FT3469 [7]": {"test_system": "FT3469 (normal neural stem cell line)", "test": "phenotypic distance (Euclidean, principal components) from DMSO controls (arbitrary units); higher = stronger morphological change"}, "E34 [8]": {"test_system": "E34", "test": "surviving fraction (nuclei count normalised to DMSO); higher = more cells surviving (less toxic)"}, "E28 [9]": {"test_system": "E28", "test": "surviving fraction (nuclei count normalised to DMSO); higher = more cells surviving (less toxic)"}, "E31 [10]": {"test_system": "E31", "test": "surviving fraction (nuclei count normalised to DMSO); higher = more cells surviving (less toxic)"}, "E21 [11]": {"test_system": "E21", "test": "surviving fraction (nuclei count normalised to DMSO); higher = more cells surviving (less toxic)"}, "E57 [12]": {"test_system": "E57", "test": "surviving fraction (nuclei count normalised to DMSO); higher = more cells surviving (less toxic)"}, "E13 [13]": {"test_system": "E13", "test": "surviving fraction (nuclei count normalised to DMSO); higher = more cells surviving (less toxic)"}, "FT3469 [14]": {"test_system": "FT3469", "test": "surviving fraction (nuclei count normalised to DMSO); higher = more cells surviving (less toxic)"}}, "note": "Where a name gives a salt, the structure may show the parent alone.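 Wherever phenotypic distance (Euclidean, principal components) from DMSO controls is given: cell Painting imaging in 384-well plates, CellProfiler features reduced to at least 20 principal components, Euclidean distance versus same-plate DMSO vehicle wells (0.1% v/v), median over six images per well.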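 Wherever surviving fraction (nuclei count normalised to DMSO) is given: nuclei counted by high-content imaging of Hoechst-stained cells in laminin-coated 384-well plates, relative to 0.1% DMSO vehicle wells, with staurosporine as cell-death control.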", "data": [{"smiles": "COC(=O)[C@@H]1[C@H]2C[C@H]3c4[nH]c5ccccc5c4CCN3C[C@@H]2CC[C@@H]1O", "note": "[Yohimbine hydrochloride]", "values": [{"measurement": "phenotypic distance", "setting": "E34 [1]; 4.11523 nM", "value": 0.815}, {"measurement": "phenotypic distance", "setting": "E34 [1]; 12.34567901 nM", "value": 0.668}, {"measurement": "phenotypic distance", "setting": "E34 [1]; 37.037 nM", "value": 0.596}, {"measurement": "phenotypic distance", "setting": "E34 [1]; 111.1111111 nM", "value": 0.623}, {"measurement": "phenotypic distance", "setting": "E34 [1]; 333.333 nM", "value": 0.866}, {"measurement": "phenotypic distance", "setting": "E34 [1]; 1000 nM", "value": 0.744}, {"measurement": "phenotypic distance", "setting": "E34 [1]; 3000 nM", "value": 0.647}, {"measurement": "phenotypic distance", "setting": "E28 [2]; 4.11523 nM", "value": 0.456}, {"measurement": "phenotypic distance", "setting": "E28 [2]; 12.34567901 nM", "value": 0.689}, {"measurement": "phenotypic distance", "setting": "E28 [2]; 37.037 nM", "value": 1.18}, {"measurement": "phenotypic distance", "setting": "E28 [2]; 111.1111111 nM", "value": 0.639}, {"measurement": "phenotypic distance", "setting": "E28 [2]; 333.333 nM", "value": 0.696}, {"measurement": "phenotypic distance", "setting": "E28 [2]; 1000 nM", "value": 0.645}, {"measurement": "phenotypic distance", "setting": "E28 [2]; 3000 nM", "value": 0.333}, {"measurement": "phenotypic distance", "setting": "E31 [3]; 4.11523 nM", "value": 0.598}, {"measurement": "phenotypic distance", "setting": "E31 [3]; 12.34567901 nM", "value": 0.58}, {"measurement": "phenotypic distance", "setting": "E31 [3]; 37.037 nM", "value": 0.688}, {"measurement": "phenotypic distance", "setting": "E31 [3]; 111.1111111 nM", "value": 0.658}, {"measurement": "phenotypic distance", "setting": "E31 [3]; 333.333 nM", "value": 0.454}, {"measurement": "phenotypic distance", "setting": "E31 [3]; 1000 nM", "value": 0.521}, {"measurement": "phenotypic distance", "setting": "E31 [3]; 3000 nM", "value": 0.828}, {"measurement": "phenotypic distance", "setting": "E21 [4]; 4.11523 nM", "value": 0.527}, {"measurement": "phenotypic distance", "setting": "E21 [4]; 12.34567901 nM", "value": 0.576}, {"measurement": "phenotypic distance", "setting": "E21 [4]; 37.037 nM", "value": 0.624}, {"measurement": "phenotypic distance", "setting": "E21 [4]; 111.1111111 nM", "value": 0.545}, {"measurement": "phenotypic distance", "setting": "E21 [4]; 333.333 nM", "value": 0.676}, {"measurement": "phenotypic distance", "setting": "E21 [4]; 1000 nM", "value": 0.456}, {"measurement": "phenotypic distance", "setting": "E21 [4]; 3000 nM", "value": 0.417}, {"measurement": "phenotypic distance", "setting": "E57 [5]; 4.11523 nM", "value": 0.343}, {"measurement": "phenotypic distance", "setting": "E57 [5]; 12.34567901 nM", "value": 0.457}, {"measurement": "phenotypic distance", "setting": "E57 [5]; 37.037 nM", "value": 0.558}, {"measurement": "phenotypic distance", "setting": "E57 [5]; 111.1111111 nM", "value": 0.582}, {"measurement": "phenotypic distance", "setting": "E57 [5]; 333.333 nM", "value": 0.386}, {"measurement": "phenotypic distance", "setting": "E57 [5]; 1000 nM", "value": 0.804}, {"measurement": "phenotypic distance", "setting": "E57 [5]; 3000 nM", "value": 0.576}, {"measurement": "phenotypic distance", "setting": "E13 [6]; 4.11523 nM", "value": 0.924}, {"measurement": "phenotypic distance", "setting": "E13 [6]; 12.34567901 nM", "value": 0.56}, {"measurement": "phenotypic distance", "setting": "E13 [6]; 37.037 nM", "value": 0.624}, {"measurement": "phenotypic distance", "setting": "E13 [6]; 111.1111111 nM", "value": 0.517}, {"measurement": "phenotypic distance", "setting": "E13 [6]; 333.333 nM", "value": 0.539}, {"measurement": "phenotypic distance", "setting": "E13 [6]; 1000 nM", "value": 0.622}, {"measurement": "phenotypic distance", "setting": "E13 [6]; 3000 nM", "value": 0.73}, {"measurement": "phenotypic distance", "setting": "FT3469 [7]; 4.11523 nM", "value": 0.568}, {"measurement": "phenotypic distance", "setting": "FT3469 [7]; 12.34567901 nM", "value": 0.613}, {"measurement": "phenotypic distance", "setting": "FT3469 [7]; 37.037 nM", "value": 0.433}, {"measurement": "phenotypic distance", "setting": "FT3469 [7]; 111.1111111 nM", "value": 1.24}, {"measurement": "phenotypic distance", "setting": "FT3469 [7]; 333.333 nM", "value": 0.516}, {"measurement": "phenotypic distance", "setting": "FT3469 [7]; 1000 nM", "value": 0.514}, {"measurement": "phenotypic distance", "setting": "FT3469 [7]; 3000 nM", "value": 0.55}, {"measurement": "surviving fraction", "setting": "E34 [8]; 4.11523 nM", "value": 0.932}, {"measurement": "surviving fraction", "setting": "E34 [8]; 12.34567901 nM", "value": 0.932}, {"measurement": "surviving fraction", "setting": "E34 [8]; 37.037 nM", "value": 0.912}, {"measurement": "surviving fraction", "setting": "E34 [8]; 111.1111111 nM", "value": 1.05}, {"measurement": "surviving fraction", "setting": "E34 [8]; 333.333 nM", "value": 0.932}, {"measurement": "surviving fraction", "setting": "E34 [8]; 1000 nM", "value": 0.959}, {"measurement": "surviving fraction", "setting": "E34 [8]; 3000 nM", "value": 0.892}, {"measurement": "surviving fraction", "setting": "E28 [9]; 4.11523 nM", "value": 1.01}, {"measurement": "surviving fraction", "setting": "E28 [9]; 12.34567901 nM", "value": 0.965}, {"measurement": "surviving fraction", "setting": "E28 [9]; 37.037 nM", "value": 1.04}, {"measurement": "surviving fraction", "setting": "E28 [9]; 111.1111111 nM", "value": 0.945}, {"measurement": "surviving fraction", "setting": "E28 [9]; 333.333 nM", "value": 1.15}, {"measurement": "surviving fraction", "setting": "E28 [9]; 1000 nM", "value": 0.948}, {"measurement": "surviving fraction", "setting": "E28 [9]; 3000 nM", "value": 0.948}, {"measurement": "surviving fraction", "setting": "E31 [10]; 4.11523 nM", "value": 0.959}, {"measurement": "surviving fraction", "setting": "E31 [10]; 12.34567901 nM", "value": 0.999}, {"measurement": "surviving fraction", "setting": "E31 [10]; 37.037 nM", "value": 1.18}, {"measurement": "surviving fraction", "setting": "E31 [10]; 111.1111111 nM", "value": 0.859}, {"measurement": "surviving fraction", "setting": "E31 [10]; 333.333 nM", "value": 0.951}, {"measurement": "surviving fraction", "setting": "E31 [10]; 1000 nM", "value": 1.07}, {"measurement": "surviving fraction", "setting": "E31 [10]; 3000 nM", "value": 0.928}, {"measurement": "surviving fraction", "setting": "E21 [11]; 4.11523 nM", "value": 0.896}, {"measurement": "surviving fraction", "setting": "E21 [11]; 12.34567901 nM", "value": 1.01}, {"measurement": "surviving fraction", "setting": "E21 [11]; 37.037 nM", "value": 0.994}, {"measurement": "surviving fraction", "setting": "E21 [11]; 111.1111111 nM", "value": 1.06}, {"measurement": "surviving fraction", "setting": "E21 [11]; 333.333 nM", "value": 1.03}, {"measurement": "surviving fraction", "setting": "E21 [11]; 1000 nM", "value": 1.01}, {"measurement": "surviving fraction", "setting": "E21 [11]; 3000 nM", "value": 1.02}, {"measurement": "surviving fraction", "setting": "E57 [12]; 4.11523 nM", "value": 1.03}, {"measurement": "surviving fraction", "setting": "E57 [12]; 12.34567901 nM", "value": 1.07}, {"measurement": "surviving fraction", "setting": "E57 [12]; 37.037 nM", "value": 0.994}, {"measurement": "surviving fraction", "setting": "E57 [12]; 111.1111111 nM", "value": 0.981}, {"measurement": "surviving fraction", "setting": "E57 [12]; 333.333 nM", "value": 0.979}, {"measurement": "surviving fraction", "setting": "E57 [12]; 1000 nM", "value": 0.979}, {"measurement": "surviving fraction", "setting": "E57 [12]; 3000 nM", "value": 1.01}, {"measurement": "surviving fraction", "setting": "E13 [13]; 4.11523 nM", "value": 0.88}, {"measurement": "surviving fraction", "setting": "E13 [13]; 12.34567901 nM", "value": 0.94}, {"measurement": "surviving fraction", "setting": "E13 [13]; 37.037 nM", "value": 1.03}, {"measurement": "surviving fraction", "setting": "E13 [13]; 111.1111111 nM", "value": 0.984}, {"measurement": "surviving fraction", "setting": "E13 [13]; 333.333 nM", "value": 1.01}, {"measurement": "surviving fraction", "setting": "E13 [13]; 1000 nM", "value": 0.876}, {"measurement": "surviving fraction", "setting": "E13 [13]; 3000 nM", "value": 0.986}, {"measurement": "surviving fraction", "setting": "FT3469 [14]; 4.11523 nM", "value": 0.957}, {"measurement": "surviving fraction", "setting": "FT3469 [14]; 12.34567901 nM", "value": 1.05}, {"measurement": "surviving fraction", "setting": "FT3469 [14]; 37.037 nM", "value": 0.936}, {"measurement": "surviving fraction", "setting": "FT3469 [14]; 111.1111111 nM", "value": 0.853}, {"measurement": "surviving fraction", "setting": "FT3469 [14]; 333.333 nM", "value": 1.04}, {"measurement": "surviving fraction", "setting": "FT3469 [14]; 1000 nM", "value": 0.975}, {"measurement": "surviving fraction", "setting": "FT3469 [14]; 3000 nM", "value": 1.01}]}]}
